Marks after values point to notes of the source that are not given here.
Experiments:
[1] = tested on: Patients diagnosed with Alzheimer's Disease; assay: ADAS-cog/11 in 5-month slow-titration trial; format: in vivo, human
Description: (§1) Subjects in the Placebo group received 21 weeks (5 months) of placebo medication.
All patients were monitored throughout the study, with follow-up and cognitive evaluation at four weeks, three months and five months after the start of the study.
The ADAS consists of two parts—a cognitive subscale and a behavioral subscale. The behavioral subscale was not be used in this study. The cognitive subscale, the ADAS—cog-11, consisted of Word Recall and Word Recognition memory tests, Object and Finger Naming, Commands, Constructional Praxis, Ideational Praxis, Orientation, Remembering Test Instructions, Spoken language Ability, Comprehension of Spoken language and Word Finding Difficulty was the primary variable in this study.
To reduce variability due to circadian fluctuations in cognitive status the ADAS was done always at the same time of the day, preferably before noon. Only a trained ADAS rater performed the test. Ideally the ADAS rater was not involved in the treatment of the subject and should have no access to AE (adverse event) reporting.
The ADAS was performed at visits 1, 2, 3, 4 and 5 (screening, baseline, week 4, week 13 and month 5 or upon early discontinuation of trial medication intake). For word recall and word recognition two parallel wordlists, list A and list B were employed. List A was used at visits 1 and 3, List B at visits 2, 4, and 5 or upon early discontinuation of trial medication intake. For practical reasons the words for word recognition was presented only once. The total score of the 11 cognitive items on the original ADAS cognitive subscale (ADAS-cog/11, Range: 0-70) was recorded.
For continuous data, a two-way analysis of variance (ANOVA) model with treatment and investigator as factors were used to compare the treatment groups for the change from baseline data. The interaction between treatment and investigator was examined. The impact of the baseline score on change from baseline was evaluated. […] If the parametric methods were deemed inappropriate (normality assumption violated), nonparametric methods such as two-way ANOVA on ranked data, Van Elteren test, controlling for investigator, was used. Following ANOVA, Fisher's LSD procedure was used for pairwise comparisons between each galanthamine group and the placebo group. A linear contrast on the main effect for treatment was used to test the dose response relationship.

[2] = tested on: Patients diagnosed with Alzheimer's Disease; assay: CIBIC-plus in 5-month slow-titration trial; format: in vivo, human
Procedure: as §1
The CIBIC-plus score was a second primary variable. An independent, experienced and properly trained clinician provided a global impression of the subject's deterioration or improvement over the course of the trial, based on separate interviews with the subject and caregivers. If helpful, the CIBIC rater audiotaped or videotaped the baseline interview for future reference.
The CIBIC-plus was performed at visit 2, 3, 4, and 5 (baseline, week 4, week 13, and month 5 or upon early discontinuation of trial medication intake). Only a trained CIBIC rater performed the test.
For ordinal categorical variables such as the CIBIC-plus score, the Van Elteren test controlling for investigator was used for the between group comparison. For the nominal data (e.g., events rates), the Cochran-Mantel-Haenszel test for general association controlling for investigator was used. A linear contrast on the proportion of patients that stay the same or improve was used to test for increasing response with increasing dose.

[3] = tested on: Patients diagnosed with Alzheimer's Disease; assay: ADCS/ADL scale in 5-month slow-titration trial; format: in vivo, human
Description: as §1
The ADCS/ADL scale is a 23-item informant-based assessment scale measuring widely applicable daily activities appropriate for patients in the mild to moderate category of Alzheimer's Disease. The 23 items were selected for measurement from the larger set of 45 items studied by Galasko et al (Alzheimer Disease and Associated Disorders, Vol 11, Suppl. 2, 1997). These individual items were scored from 0-3 to […], depending on the question, with a possible total score of 78. A higher score indicated a higher functioning patient.
An additional secondary indication captures overall changes in Activities of daily Living (ADL) performances as measured by the Alzheimer's Disease Cooperative Study Activities of Daily Living (ACDS/ADL) scale. As mentioned above this scale is comprised of 23 items that have been tested and validated in patients with mild to moderately severe Alzheimer's disease.

patients = assay: ADAS-cog in earlier study with quicker titration; format: in vivo, human; conditions: for ADAS-cog: Actual Drug Mean (SE): raw mean
Procedure: An improvement in tolerability at this dose was seen, but this dose was suboptimal from an efficacy standpoint.
Statistical analysis of the results of the ADAS-cog score is shown below in Table 7. […] This indicated a significant improvement of the patients' cognitive function at this dose level. The treatment with 36 mg/day in this study was terminated at an early point and thus there was insufficient information for a well defined comparison with the placebo.

[4] = in humans; cited from earlier work

COc1ccc2c3c1O[C@H]1C[C@@H](O)C=C[C@@]31CCN(C)C2 [GAL, galantamine]
Responders, ADAS-cog/11 change ≦ 0 points at Month 5: % ([1]; 8 mg/day): 46.5%
Responders, ADAS-cog/11 change ≦ 0 points at Month 5: n ([1]; 8 mg/day): 47
Responders, ADAS-cog/11 change ≦ −4 points at Month 5: % ([1]; 8 mg/day): 25.7%
Responders, ADAS-cog/11 change ≦ −4 points at Month 5: n ([1]; 8 mg/day): 26
Responders, ADAS-cog/11 change ≦ −7 points at Month 5: % ([1]; 8 mg/day): 13.9%
Responders, ADAS-cog/11 change ≦ −7 points at Month 5: n ([1]; 8 mg/day): 14
Responders, ADAS-cog/11 change ≦ −10 points at Month 5: % ([1]; 8 mg/day): 5.9%
Responders, ADAS-cog/11 change ≦ −10 points at Month 5: n ([1]; 8 mg/day): 6
Responders, ADAS-cog/11 change ≦ 0 points at Month 5: % ([1]; 16 mg/day): 65.4%
Responders, ADAS-cog/11 change ≦ 0 points at Month 5: n ([1]; 16 mg/day): 136
Responders, ADAS-cog/11 change ≦ −4 points at Month 5: % ([1]; 16 mg/day): 35.6%
Responders, ADAS-cog/11 change ≦ −4 points at Month 5: n ([1]; 16 mg/day): 74
Responders, ADAS-cog/11 change ≦ −7 points at Month 5: % ([1]; 16 mg/day): 15.9%
Responders, ADAS-cog/11 change ≦ −7 points at Month 5: n ([1]; 16 mg/day): 33
Responders, ADAS-cog/11 change ≦ −10 points at Month 5: % ([1]; 16 mg/day): 7.2%
Responders, ADAS-cog/11 change ≦ −10 points at Month 5: n ([1]; 16 mg/day): 15
Responders, ADAS-cog/11 change ≦ 0 points at Month 5: % ([1]; 24 mg/day): 64.9%
Responders, ADAS-cog/11 change ≦ 0 points at Month 5: n ([1]; 24 mg/day): 137
Responders, ADAS-cog/11 change ≦ −4 points at Month 5: % ([1]; 24 mg/day): 37.0%
Responders, ADAS-cog/11 change ≦ −4 points at Month 5: n ([1]; 24 mg/day): 78
Responders, ADAS-cog/11 change ≦ −7 points at Month 5: % ([1]; 24 mg/day): 22.3%
Responders, ADAS-cog/11 change ≦ −7 points at Month 5: n ([1]; 24 mg/day): 47
Responders, ADAS-cog/11 change ≦ −10 points at Month 5: % ([1]; 24 mg/day): 10.4%
Responders, ADAS-cog/11 change ≦ −10 points at Month 5: n ([1]; 24 mg/day): 22
Change from baseline in ADAS-cog/11 at Month 5, Mean (SE) ([1]; LOCF, 8 mg/day, no titration): 0.4 (0.52)▪
Change from baseline in ADAS-cog/11 at Month 5, Mean (SE) ([1]; LOCF, 16 mg/day after 4-week titration): −1.4 (0.35)***^♭
Change from baseline in ADAS-cog/11 at Month 5, Mean (SE) ([1]; LOCF, 24 mg/day after 8-week titration): −1.4 (0.39)***^♭
Change from baseline in ADAS-cog/11 at Month 5, Mean (SE) ([1]; observed case, 8 mg/day, no titration): 0.1 (0.58)*
Change from baseline in ADAS-cog/11 at Month 5, Mean (SE) ([1]; observed case, 16 mg/day after 4-week titration): −1.5 (0.40)***^†
Change from baseline in ADAS-cog/11 at Month 5, Mean (SE) ([1]; observed case, 24 mg/day after 8-week titration): −1.8 (0.44)***^†
CIBIC-plus at Month 5, Improved/no change: % ([2]; LOCF, 8 mg/day): 53%
CIBIC-plus at Month 5, Improved/no change: n ([2]; LOCF, 8 mg/day): 68
CIBIC-plus at Month 5, Improved/no change: % ([2]; LOCF, 16 mg/day): 66%
CIBIC-plus at Month 5, Improved/no change: n ([2]; LOCF, 16 mg/day): 169
CIBIC-plus at Month 5, Improved/no change: % ([2]; LOCF, 24 mg/day): 64%
CIBIC-plus at Month 5, Improved/no change: n ([2]; LOCF, 24 mg/day): 162
CIBIC-plus at Month 5, Improved/no change: % ([2]; observed case, 8 mg/day): 51%
CIBIC-plus at Month 5, Improved/no change: n ([2]; observed case, 8 mg/day): 54
CIBIC-plus at Month 5, Improved/no change: % ([2]; observed case, 16 mg/day): 68%
CIBIC-plus at Month 5, Improved/no change: n ([2]; observed case, 16 mg/day): 143
CIBIC-plus at Month 5, Improved/no change: % ([2]; observed case, 24 mg/day): 64%
CIBIC-plus at Month 5, Improved/no change: n ([2]; observed case, 24 mg/day): 136
Change in Total ADL score from baseline at Month 5, Mean (SE) ([3]; LOCF, 8 mg/day): −3.2 (0.79)
Change in Total ADL score from baseline at Month 5, Mean (SE) ([3]; LOCF, 24 mg/day): −1.5 (0.56)**
Change in Total ADL score from baseline at Month 5, Mean (SE) ([3]; observed case, 8 mg/day): −3.1 (0.91)
Change in Total ADL score from baseline at Month 5, Mean (SE) ([3]; observed case, 16 mg/day): −0.5 (0.55)***^†
Change in Total ADL score from baseline at Month 5, Mean (SE) ([3]; observed case, 24 mg/day): −1.6 (0.61)**
ADAS-cog: Mean estimate GAL-Placebo Difference (patients; 18 mg/day): −1.69
ADAS-cog: Z, measure of advantage of galantamine over placebo (patients; 18 mg/day): 9.9
ADAS-cog: Actual Drug Mean (SE) (patients; 18 mg/day): 0.5 (0.70)
ADAS-cog: Mean estimate GAL-Placebo Difference (patients; 24 mg/day): −3.34
ADAS-cog: Z, measure of advantage of galantamine over placebo (patients; 24 mg/day): 13.4
ADAS-cog: Actual Drug Mean (SE) (patients; 24 mg/day): 0.7 (0.9)
ADAS-cog: Mean estimate GAL-Placebo Difference (patients; 36 mg/day): −1.93
ADAS-cog: Z, measure of advantage of galantamine over placebo (patients; 36 mg/day): 7.8
ADAS-cog: Actual Drug Mean (SE) (patients; 36 mg/day): 1.1 (0.9)
passing the blood-brain barrier [4]: capable of passing the blood-brain barrier

From patent publication US20030139391A1 (priority 2000, published 2003)
